The nature of series [1]: Ex vivo drug permeation, everted ileum sac model. In kind it is in vitro ADME, Sprague–Dawley (SD) rats. Particulars: male, Sprague-Dawley, pH 7.4, everted rat ileum sac. As to the method: (§1) Preclinical ex vivo and in vivo studies were conducted on male Sprague–Dawley (SD) rats (200–250 g). The SD rats were bred at the Central Animal Research Facility, Manipal Academy of Higher Education, Manipal, India. The SD rats were exposed to a light–dark cycle (12 h each) and had free access to food and water. The rats used in the study were housed in cages at 25 ± 2 °C. All the experimental procedures and animal handling were carried out following the CCSEA (Committee for Control and Supervision of Experiments on Animals, Ministry of Fisheries, Animal Husbandry and Dairying, Government of India) guidelines, and in accordance with ARRIVE guidelines as well. All the animal experimental protocols were approved by the Institutional Animal Ethical Committee, Kasturba Medical College, MAHE, Manipal (Approval No: IAEC/KMC/49/2020). An attempt was made to use the minimum number of rats in an ethically responsible manner.
The absorption of the drug through the ileum portion of the small intestine was determined by an ex vivo drug permeation study using an everted ileum sac model. Overnight-fasted SD rats were sacrificed humanely, and the small intestine was isolated (≈ 10 cm). The isolated ileum segment was carefully everted and pushed completely over a capillary tube. The ileum was then tied between the cannulated parts of the U-shaped glass tube, which was used as a perfusion apparatus. The perfusion apparatus was then placed in a beaker containing 450 mL of Ringer’s solution (pH 7.4). The medium was stirred using magnetic beads at 100 rpm and 37 °C. Plain ASPM solution/liposomal dispersion was added to the beaker. The samples were withdrawn from the cannulated arm of the U tube at predetermined time points of 1, 2 and 3 h, and the same volume of the withdrawn sample was replaced by the addition of fresh Ringer’s solution. The amount of drug absorbed was calculated by analysing the samples using HPLC[22].

Series [2] is described as follows: Oral pharmacokinetic study in rats. The class given is in vivo, Sprague–Dawley (SD) rats. The note with it: SD rats, 5 mg/kg ASPM orally, n = 6. As to the method:
as §1
Overnight-fasted SD rats were divided into 3 groups (n = 6). Group I, ASPM solution; Group II, LP-ASPM; Group III, LP-PD-2. All the groups received ASPM at a dose of 5 mg/kg body weight orally. Blood was drawn from the retro-orbital sinus at different time points between 0 and 48 h in tubes containing disodium EDTA. Blood was centrifuged at 5000 rpm for 10 min, and the clear plasma from the supernatant layer was collected and stored at -80 °C until analysis. The amount of ASPM in the samples was analysed by RP-HPLC. The detailed bioanalytical method development for the quantification of ASPM in rat plasma is given in Supplementary information; Section S3; Table S4; Figure S7. Pharmacokinetic parameters were calculated using PK Solutions 2.0™ (Summit Research Services, Montrose, Colorado).

The subject of series [3] is L-DOPA-carbidopa-induced hyper locomotor activity. The experiment in a line: Psychostimulant-induced hyperactivity model, locomotor activity (LMA) test. Particulars: L-DOPA-carbidopa-treated rats, ASPM dose 5 mg/kg p.o. In kind it is in vivo, Sprague–Dawley (SD) rats. As to the method:
as §1
The pharmacodynamic study was performed using an induced locomotor activity (LMA) test with a psychostimulant-induced hyperactivity model. The ability of the optimized formulation to reverse hyperactivity in rats was studied. […] A digital Actophotometer (Ikon Instruments, New Delhi, India) was used to assess LMA at 5 min intervals at 1, 2 and 3 h. The LMA was assessed after 1 h of L-DOPA-carbidopa administration in group II. ASPM was administered after 30 min of L-DOPA-carbidopa administration, and LMA was noted after 30 min of ASPM administration in groups III, IV and V.

On the set-up of series [4]: method as in PMID 30669881. The note with it: pure ASPM dispersion, intestinal fluid (phosphate buffer pH 6.8), within 180 min; cited from earlier work.
A further series relates to Caco-2 cells. More on the design: method as in PMID 30874464, PMID 32228915, doi:10.1016/j.jddst.2022.103275. Particulars: highest concentration of ASPM tested; cited from earlier work.
The next series has as its system Raji B cells. More on the design: method as in PMID 30874464, PMID 32228915, doi:10.1016/j.jddst.2022.103275. Particulars: highest concentration of ASPM tested; cited from earlier work.
For series [5] the following is noted: cited from earlier work.
Setting [6] is: male, Sprague-Dawley, rat, plasma, po.

Counter-ions that a name gives are not always drawn. Marks after values point to notes of the source that are not given here. Where only a bound is given, the exact number is not on record here.

`CN1CC2c3ccccc3Oc3ccc(Cl)cc3C2C1` (stereo not shown) [ASPM, Asenapine maleate] registered a Papp at 1 h in series [1] (1 h) of 291 ± 26 ×10⁻⁶ cm/s. The same compound showed a Papp at 2 h in series [1] (2 h) of 231 ± 31 ×10⁻⁶ cm/s. For the same compound, the Papp at 3 h in series [1] (3 h) was found to be 206 ± 30 ×10⁻⁶ cm/s. The t1/2 in series [2] (5 mg/kg) is 25.52 ± 2.15 h. The compound further gave a half-life in series [2] (male, Sprague-Dawley, rat, plasma, po, 5 mg/kg) of 1510 ± 129 min. Also, in series [2] (setting [6]), the AUC(0-inf) amounted to 3640 ± 347 ng·h/mL, the AUC(0-t) was 2660 ± 221 ng·h/mL, the Cmax amounted to 131 ± 7.01 ng/mL and the MRT amounted to 36 ± 3.16 h. Besides, in series [2] (setting [6]), the Tmax turned out to be 1 h and the k el is 7.53e-06 s⁻¹. In addition, in series [3] (1 h), the Locomotor counts is listed as 121 ± 17*^$. In addition, the Locomotor counts in series [3] (2 h) is recorded as 118 ± 18*^$. The Locomotor counts in series [3] (3 h) was 110 ± 15*^$. The drug release result in series [4] was “more than 90%”. Also, in the series on Caco-2 cells, the cells remaining viable result is given as “more than 80%”. In addition, in the series with Raji B cells, the cells remaining viable entry is given as “more than 80%”. Besides, the bioavailability in series [5] (marketed fast-dissolving sublingual tablet, ref 7 (printed at next sentence)) is 35%. For the same compound, the oral bioavailability in series [5] (oral administration) is given as less than 2%.

The Papp is a coefficient for how fast a substance crosses the barrier. Low values mean poor permeation, high ones ready permeation. The term half-life denotes how long it takes for the measured level to halve. A lower half-life goes with rapid decline. The AUC(0-inf) is total exposure, with the tail of the curve extrapolated. The low end stands for low exposure, the high end for high exposure. Usually AUC(0-t) stands for exposure summed from dosing to a finite time, without extrapolation to infinity. A higher AUC(0-t) goes with high exposure. As a reminder, the Cmax is the peak of the concentration-time curve. What is called MRT is a mean duration of stay, worked out from the concentration-time curve. In general, Tmax refers to the time at which the peak concentration occurs. In general, bioavailability refers to the share of a dose that reaches the circulation, judged against a reference dose that is usually intravenous.

The record behind these values is article PMC11568265, “Exploring peptide dendrimers for intestinal lymphatic targeting: formulation and evaluation of peptide dendrimer conjugated liposomes for enhancing the oral bioavailability of Asenapine maleate” (Scientific Reports, 2024).
